According to patent US8415376B2, “Inhibitors of PI3 kinase” (Amgen Inc., priority 2008, dated 2013):

Legend:
PI3Kα = target: T1, PI3Kα (Homo sapiens, UniProt P42336); test: In vitro PI3 kinase enzyme assay (PI3K ATP loss), alpha; format: biochemical; details: average if run more than once; read-out: ATP Loss (PBKα) IC50 μM (Avg)
T1 construct: Full length p110 subunits of PI3K α, β and δ, N-terminally labeled with polyHis tag; polyHis (N); made in house; host or cells: Sf9 insect cells (baculovirus)
T1 sequence (P42336 whole entry): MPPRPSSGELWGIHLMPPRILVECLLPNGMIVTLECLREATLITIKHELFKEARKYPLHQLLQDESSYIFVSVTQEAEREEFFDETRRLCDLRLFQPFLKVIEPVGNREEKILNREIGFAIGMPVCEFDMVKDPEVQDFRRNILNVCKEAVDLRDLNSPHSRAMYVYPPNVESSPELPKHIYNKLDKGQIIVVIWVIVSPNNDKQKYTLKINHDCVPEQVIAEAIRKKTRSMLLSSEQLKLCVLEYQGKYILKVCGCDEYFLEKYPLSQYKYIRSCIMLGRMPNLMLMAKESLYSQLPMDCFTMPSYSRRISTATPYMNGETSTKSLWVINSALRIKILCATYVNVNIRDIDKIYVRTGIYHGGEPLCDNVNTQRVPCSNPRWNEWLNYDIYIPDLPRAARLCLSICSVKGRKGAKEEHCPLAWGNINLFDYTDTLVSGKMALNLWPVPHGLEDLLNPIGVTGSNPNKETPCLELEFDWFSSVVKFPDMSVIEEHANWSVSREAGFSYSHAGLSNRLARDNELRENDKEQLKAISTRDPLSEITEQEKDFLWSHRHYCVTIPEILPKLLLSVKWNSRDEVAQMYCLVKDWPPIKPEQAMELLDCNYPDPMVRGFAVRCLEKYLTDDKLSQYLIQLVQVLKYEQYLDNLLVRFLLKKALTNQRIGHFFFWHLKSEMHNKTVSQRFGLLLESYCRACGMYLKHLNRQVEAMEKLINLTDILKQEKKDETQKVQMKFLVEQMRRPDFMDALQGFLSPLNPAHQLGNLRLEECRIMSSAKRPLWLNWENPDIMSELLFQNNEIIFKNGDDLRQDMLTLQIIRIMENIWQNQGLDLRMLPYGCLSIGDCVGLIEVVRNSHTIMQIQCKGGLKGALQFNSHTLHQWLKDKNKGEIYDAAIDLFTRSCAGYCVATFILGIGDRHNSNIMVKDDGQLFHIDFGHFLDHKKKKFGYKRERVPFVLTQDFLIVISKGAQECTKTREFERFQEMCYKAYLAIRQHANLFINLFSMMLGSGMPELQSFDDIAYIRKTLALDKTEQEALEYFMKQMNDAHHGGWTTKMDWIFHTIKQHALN
T1 sequence (P27986 whole entry partner): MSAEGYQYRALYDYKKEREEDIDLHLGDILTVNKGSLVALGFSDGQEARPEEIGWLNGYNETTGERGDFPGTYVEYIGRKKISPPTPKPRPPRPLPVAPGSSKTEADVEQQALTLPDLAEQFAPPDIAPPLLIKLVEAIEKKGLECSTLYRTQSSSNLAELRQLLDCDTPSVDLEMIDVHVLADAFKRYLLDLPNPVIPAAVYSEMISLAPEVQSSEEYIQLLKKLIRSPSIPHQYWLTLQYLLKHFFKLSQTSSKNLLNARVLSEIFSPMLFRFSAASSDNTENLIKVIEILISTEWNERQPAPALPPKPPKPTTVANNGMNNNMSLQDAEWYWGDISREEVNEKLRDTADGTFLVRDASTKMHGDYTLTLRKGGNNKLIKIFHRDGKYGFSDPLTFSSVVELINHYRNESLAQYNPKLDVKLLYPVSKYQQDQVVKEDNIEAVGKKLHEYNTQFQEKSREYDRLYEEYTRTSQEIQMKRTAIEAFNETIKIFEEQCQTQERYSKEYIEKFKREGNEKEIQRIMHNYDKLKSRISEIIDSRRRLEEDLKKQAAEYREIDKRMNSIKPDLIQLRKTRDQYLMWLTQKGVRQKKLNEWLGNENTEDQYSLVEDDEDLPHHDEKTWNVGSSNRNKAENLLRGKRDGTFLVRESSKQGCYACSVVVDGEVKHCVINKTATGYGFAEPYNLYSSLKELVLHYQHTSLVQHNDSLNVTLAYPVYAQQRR
Protocol: (§1) Full length p110 subunits of PI3K α, β and δ, N-terminally labeled with polyHis tag, can be co-expressed with p85 with Baculo virus expression vectors in sf9 insect cells. P110/p85 heterodimers can be purified by sequential Ni-NTA, Q-HP, Superdex-100 chromatography. Purified α, β and δ isozymes can be stored at −20° C. in 20 mM Tris, pH 8, 0.2M NaCl, 50% glycerol, 5 mM DTT, 2 mM Na cholate. […] The γ isozyme can be purified by sequential Ni-NTA, Superdex-200, Q-HP chromatography. The γ isozyme can be stored frozen at −80° C. in NaH2PO4, pH 8, 0.2M NaCl, 1% ethylene glycol, 2 mM β-mercaptoethanol.
(§2) In Vitro PI3 Kinase Enzyme Assays (PI3K Atploss)
(§3) PI3K enzyme assays (alpha, beta, delta and gamma) can be performed in 25 μL with the above final concentrations of components in white polyproplyene plates. Phosphatidyl inositol phosphoacceptor, PtdIns(4,5)P2 (eg. P4508) can be obtained from Echelon Biosciences, Salt Lake City, Utah. […] Test compounds can be dissolved in DMSO and diluted with three-fold serial dilutions. The compound in DMSO (1 μL) may be added per test well, and the inhibition relative to reactions containing no compound, with and without enzyme can be determined After assay incubation at RT, the reaction can be stopped and residual ATP can be determined by addition of an equal volume of a commercial ATP bioluminescence kit (Perkin Elmer EasyLite, Perkin Elmer, Waltham, Mass.) according to the manufacturer's instructions, and detected using an Analyst GT luminometer.

PI3Kβ = target: T2, PI3Kβ (Homo sapiens, UniProt P42338); test: In vitro PI3 kinase enzyme assay (PI3K ATP loss), beta; format: biochemical; details: average if run more than once
T2 construct: Full length p110 subunits of PI3K α, β and δ, N-terminally labeled with polyHis tag; polyHis (N); made in house; host or cells: Sf9 insect cells (baculovirus)
T2 sequence (P42338 whole entry): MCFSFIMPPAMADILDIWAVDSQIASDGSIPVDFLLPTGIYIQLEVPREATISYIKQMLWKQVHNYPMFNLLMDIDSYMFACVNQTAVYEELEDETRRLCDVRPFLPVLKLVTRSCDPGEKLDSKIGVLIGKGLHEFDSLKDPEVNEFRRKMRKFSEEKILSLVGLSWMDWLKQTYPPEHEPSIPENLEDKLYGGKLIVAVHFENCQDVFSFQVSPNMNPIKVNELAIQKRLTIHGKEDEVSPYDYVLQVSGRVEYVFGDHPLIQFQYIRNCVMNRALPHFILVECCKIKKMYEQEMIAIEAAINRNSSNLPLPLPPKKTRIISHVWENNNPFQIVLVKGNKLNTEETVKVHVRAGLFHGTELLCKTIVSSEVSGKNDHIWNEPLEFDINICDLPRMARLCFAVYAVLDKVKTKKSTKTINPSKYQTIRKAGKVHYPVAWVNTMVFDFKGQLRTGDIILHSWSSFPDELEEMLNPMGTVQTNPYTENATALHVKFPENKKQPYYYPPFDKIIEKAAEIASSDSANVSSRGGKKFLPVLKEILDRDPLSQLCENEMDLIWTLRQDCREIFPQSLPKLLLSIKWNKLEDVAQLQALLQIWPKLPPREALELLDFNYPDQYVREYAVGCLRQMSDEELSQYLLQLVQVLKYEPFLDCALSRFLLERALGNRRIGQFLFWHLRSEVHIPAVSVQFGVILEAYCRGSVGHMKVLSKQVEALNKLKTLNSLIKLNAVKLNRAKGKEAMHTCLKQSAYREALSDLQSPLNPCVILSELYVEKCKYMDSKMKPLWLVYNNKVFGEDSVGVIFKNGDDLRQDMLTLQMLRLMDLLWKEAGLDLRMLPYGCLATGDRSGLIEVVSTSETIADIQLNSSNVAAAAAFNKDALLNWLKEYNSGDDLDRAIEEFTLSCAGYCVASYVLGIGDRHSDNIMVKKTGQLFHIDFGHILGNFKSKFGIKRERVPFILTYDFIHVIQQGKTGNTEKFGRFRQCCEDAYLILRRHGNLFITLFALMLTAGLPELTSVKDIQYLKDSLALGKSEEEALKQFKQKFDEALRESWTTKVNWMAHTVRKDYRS
T2 sequence (P27986 whole entry partner): as the sequence (P27986 whole entry partner) above
Protocol: as §1, §2, §3

[1] = test system: phosphorylation of Akt at Ser473; test: Cell-based phospho-Akt Ser473 assay (HCT116 cell); details: HCT 116 human colon carcinoma cells, IGF-1 stimulated; average
From the text: Cell-Based Phospho-Akt Ser473 Assay (HCT116 Cell)
This assay determines the ability of a compound to inhibit the phosphorylation of […] in Akt using a MSD based sandwich immunoassay (Meso Scale Detection, Meso Scale Discovery (MSD), Gaithersburg, Md.). HCT 116 human colon carcinoma cell lines can be grown in McCoy's 5A growth medium (GIBCO, Carlsbad, Calif.) containing 10% FBS (GIBCO, Carlsbad, Calif.) and X1 Penicillin-streptomycin-glutamine (GIBCO, Carlsbad, Calif.). Prior to the assay, cells can be detached from the culture flask with trypsin, and re-suspended in complete media to give a final concentration of 1.6×10^5 cells per mL. Aliquots (100 μl) of the HCT116 cell suspension can be seeded into each well of a 96 well tissue culture plate to give a final density of 16,000 cells per well. Cells can then be incubated overnight at 37° C.
The following day the cells can be treated with serially diluted test compounds and incubated for 2 hours at 37° C. The culture media on the HCT 116 cells can be replaced with 189 μL McCoys media, supplemented with 0.1% BSA (ICN Biomedicals, Inc., Costa Mesa, Calif.). Compounds can be prepared as either 10 mM or 0.5 mM stock solutions in DMSO, and serially diluted 3 fold in a 10-point dose-response curve to give final concentrations that are 200-fold greater than the desired final test concentration. Aliquots (1 μL) of serially-diluted compounds can be transferred to 96 well tissue culture plates containing the HCT 116 cells. […] As a maximum response control, wells can contain 0.5% DMSO in place of compound. The plates can be mixed at 700 rpm for 2 min to ensure even distribution of the test compound and incubated for 2 hours at 37° C. Cells can then be stimulated with insulin-like growth factor 1 (Sigma, St Louis, Mo.) at final concentration of 100 ng/ml for 15 minutes at 37° C. The media can then be removed and the cells treated with 80 μL cell-lysis buffer (MSD) containing a cocktail of protease and phosphatase inhibitors for one hour at 4° C.
25 μL Cell lysate can then be transferred to pre-blocked MSD assay plates pre-coated with a capture antibody specific for Akt, and the plates can be incubated for 2 hours at room temperature. The cell lysates can then be removed and plates can then be washed four times with 200 μl per well of Tris wash buffer (500 mM Tris, PH 7.5, 1.5 M NaCl, 0.2% Tween-20). Subsequently cells can be incubated for 1 hour at room temperature with a 25 μL solution containing the detection antibody, anti-phospho Akt (Ser 473) labeled with an electrochemiluminescent compound (Meso Scale Discovery SULPHO-TAG™ label, MSD, Gaithersburg, Md.). The detection antibody can be removed and plates can then be washed four times with 200 μL per well of Tris wash buffer. An aliquot of 150 μL of diluted MSD read buffer can then be applied to each well, and the electrochemiluminescent signal can be measured using a MSD SECTOR™ plate reader (Meso Scale Discovery, Gaithersburg, Md.). This instrument measures the intensity of emitted light to determine a quantitative measure of phosphorylated Akt in each well. The dose-response data obtained with each compound can be analyzed and the IC50 inhibition of Akt phosphorylation at Ser473 can be calculated.
Activity data for the compounds tested in the PI3K cell based Akt assay is provided in Table 1 under the column heading HCT116 Cell.

| SMILES | IC50 (PI3Kα) [µM] | IC50 (PI3Kβ) [µM] | IC50 [1] [µM] |
| --- | --- | --- | --- |
| NCc1cc(-c2ccc3nccc(N4CCOCC4)c3c2)cnc1Cl [Example 16, 1-(2-chloro-5-(4-(4-morpholinyl)-6-quinolinyl)-3-pyridinyl)methanamine] | 3.53 | 26.7 | – |
| O=S(=O)(Nc1cc(-c2ccc3ncc(N4CCNCC4)nc3c2)cnc1Cl)c1ccc(F)cc1 [Example 72, N-(2-chloro-5-(3-(1-piperazinyl)-6-quinoxalinyl)-3-pyridinyl)-4-fluorobenzenesulfonamide] | 0.0049 | 0.01 | 0.0168 |
| CN(C)c1cc(-c2ccc3nccc(N4CCOCC4)c3c2)cnc1Cl [Example 51, 2-chloro-N,N-dimethyl-5-(4-(4-morpholinyl)-6-quinolinyl)-3-pyridinamine] | 0.179 | 2.46 | – |
| O=S(=O)(Nc1cc(-c2ccc3nccc(N4CCC(O)C4)c3c2)cnc1Cl)c1ccc(F)cc1 (stereo not shown) [Example 26, N-(2-chloro-5-(4-(3-hydroxy-1-pyrrolidinyl)-6-quinolinyl)-3-pyridinyl)-4-fluorobenzenesulfonamide] | 0.0111 | 0.0778 | 2.96 |
| O=S(=O)(Nc1cc(-c2cnc3ncccc3c2)cnc1Cl)c1ccc(F)cc1 [Example 44, N-(2-chloro-5-(1,8-naphthyridin-3-yl)-3-pyridinyl)-4-fluorobenzenesulfonamide] | 2.84 | 5.61 | – |
| O=S(=O)(Nc1cc(-c2ccc3ncc(NCC4CCCNC4)nc3c2)cnc1Cl)c1ccc(F)cc1 (stereo not shown) [Example 74, N-(2-chloro-5-(3-((3-piperidinylmethyl)amino)-6-quinoxalinyl)-3-pyridinyl)-4-fluorobenzenesulfonamide] | 0.0192 | 0.0463 | 2.63 |
| Oc1cc(-c2ccc3nccc(N4CCOCC4)c3c2)cnc1Cl [Example 19, 2-chloro-5-(4-(4-morpholinyl)-6-quinolinyl)-3-pyridinol] | 0.0258 | 0.644 | 0.311 |
| Nc1nc2ccc(-c3cnc(Cl)c(NS(=O)(=O)c4ccc(F)cc4)c3)cc2[nH]c1=O [Example 43, N-(5-(2-amino-3-oxo-3,4-dihydro-6-quinoxalinyl)-2-chloro-3-pyridinyl)-4-fluorobenzenesulfonamide] | 0.0169 | 0.0648 | 5.04 |
| CS(=O)(=O)Nc1cc(-c2ccc3nccc(Oc4ccccc4)c3c2)cnc1Cl [Example 5, N-(2-chloro-5-(4-phenoxy-6-quinolinyl)-3-pyridinyl)methanesulfonamide] | 0.255 | 0.105 | 1.14 |
| COc1ccnc2ccc(-c3cnc(Cl)c(NS(=O)(=O)c4ccc(F)cc4)c3)cc12 [Example 8, N-(2-chloro-5-(4-methoxy-6-quinolinyl)-3-pyridinyl)-4-fluorobenzenesulfonamide] | 0.0127 | 0.0147 | 0.222 |
| CC(C)N1CCN(c2cnc3ccc(-c4cnc(Cl)c(NS(=O)(=O)c5ccc(F)cc5)c4)cc3n2)CC1 [Example 21, N-(2-chloro-5-(3-(4-(1-methylethyl)-1-piperazinyl)-6-quinoxalinyl)-3-pyridinyl)-4-fluorobenzenesulfonamide] | 0.0054 | – | 0.0115 |
| COc1ccc(S(=O)(=O)Nc2cc(-c3ccc4ncccc4c3)cnc2Cl)cc1 [Example 47, N-(2-chloro-5-(6-quinolinyl)-3-pyridinyl)-4-methoxybenzenesulfonamide] | 0.0417 | 0.0249 | 0.526 |
| O=S(=O)(Nc1cc(-c2ccnc3cccnc23)cnc1Cl)c1ccc(F)cc1 [Example 42, N-(2-chloro-5-(1,5-naphthyridin-4-yl)-3-pyridinyl)-4-fluorobenzenesulfonamide] | 0.0875 | 0.62 | 1.73 |
| O=S(=O)(Nc1cc(-c2ccc3ncc(N4CCC(F)(F)CC4)nc3c2)cnc1Cl)c1ccc(F)cc1 [Example 58, N-(2-chloro-5-(3-(4,4-difluoro-1-piperidinyl)-6-quinoxalinyl)-3-pyridinyl)-4-fluorobenzenesulfonamide] | 0.0034 | 0.0824 | 0.0635 |
| COC1CCCN(c2cnc3ccc(-c4cnc(Cl)c(NS(=O)(=O)c5ccc(F)cc5)c4)cc3n2)C1 (stereo not shown) [Example 66] | 0.0027 | 0.03 | 0.0405 |
| CN(C)c1cc(-c2ccc3ncccc3c2)cnc1Cl [Example 13, 2-chloro-N,N-dimethyl-5-(6-quinolinyl)-3-pyridinamine] | 1.12 | – | – |
| O=S(=O)(Nc1cc(-c2ccc3nnccc3c2)cnc1Cl)c1ccc(F)cc1 [Example 37, N-(2-chloro-5-(6-cinnolinyl)-3-pyridinyl)-4-fluorobenzenesulfonamide] | 0.0783 | 0.212 | – |
| CN(C)c1cc(-c2ccc3nccc(Cl)c3c2)cnc1Cl [Example 52, 2-chloro-5-(4-chloro-6-quinolinyl)-N,N-dimethyl-3-pyridinamine] | 0.43 | 2.24 | – |
| OCc1cc(-c2ccc3nccc(N4CCOCC4)c3c2)cnc1Cl [Example 14, (2-chloro-5-(4-(4-morpholinyl)-6-quinolinyl)-3-pyridinyl)methanol] | 1.13 | 5.42 | – |
| O=S(=O)(Nc1cc(-c2ccc3cccnc3c2)cnc1Cl)c1ccc(F)cc1 [Example 18, N-(2-chloro-5-(7-quinolinyl)-3-pyridinyl)-4-fluorobenzenesulfonamide] | 1.97 | 7.7 | – |
| CC(c1ccccc1)N1CCN(c2ccnc3ccc(-c4cnc(Cl)c(N(C)C)c4)cc23)CC1 (stereo not shown) [Example 53, 2-chloro-N,N-dimethyl-5-(4-(4-(1-phenylethyl)-1-piperazinyl)-6-quinolinyl)-3-pyridinamine] | 0.294 | 4.22 | – |
| O=S(=O)(Nc1cc(-c2ccc3nccc(N4CCN(Cc5ccccc5)CC4)c3c2)cnc1Cl)c1ccc(F)cc1 [Example 28, N-(5-(4-(4-benzyl-1-piperazinyl)-6-quinolinyl)-2-chloro-3-pyridinyl)-4-fluorobenzenesulfonamide] | 0.0062 | 0.0339 | – |
| CC(C)(C)C(=O)NCc1cc(-c2ccc3nccc(N4CCOCC4)c3c2)cnc1Cl [Example 17, N-((2-chloro-5-(4-(4-morpholinyl)-6-quinolinyl)-3-pyridinyl)methyl)-2,2-dimethylpropanamide] | 3.11 | 27.4 | – |
| O=S(=O)(Nc1cc(-c2ccc3cnncc3c2)cnc1Cl)c1ccc(F)cc1 [Example 40, N-(2-chloro-5-(6-phthalazinyl)-3-pyridinyl)-4-fluorobenzenesulfonamide] | 0.899 | 0.698 | – |
| CNc1ccc2cc(-c3cnc(Cl)c(NS(=O)(=O)c4ccc(OC)cc4)c3)ccc2n1 [Example 48, N-(2-chloro-5-(2-(methylamino)-6-quinolinyl)-3-pyridinyl)-4-methoxybenzenesulfonamide] | 0.0954 | 2.49 | – |
| O=S(=O)(Nc1cc(-c2cccc3cnncc23)cnc1Cl)c1ccc(F)cc1 [Example 39, N-(2-chloro-5-(5-phthalazinyl)-3-pyridinyl)-4-fluorobenzenesulfonamide] | 1.9 | 4.12 | – |
| CC(=O)OCc1cc(-c2ccc3nccc(N4CCOCC4)c3c2)cnc1Cl [Example 15, (2-chloro-5-(4-(4-morpholinyl)-6-quinolinyl)-3-pyridinyl)methyl acetate] | 1.39 | 3.67 | – |
